Data taken from the CheMixHub ionic liquid set.

Test: xn = mol fraction of the nth substance listed

CCCC[n+]1ccn(C)c1.O=S(=O)([N-]S(=O)(=O)C(F)(F)F)C(F)(F)F + CC(=O)[O-].CCCC[NH2+]CCO
101 kPa, x2 = 0
Details	viscosity [mPa·s]
278.15 K	145.6
288.15 K	83.44
293.15 K	65.11
318.15 K	24.05

CCCC[n+]1ccn(C)c1.O=S(=O)([N-]S(=O)(=O)C(F)(F)F)C(F)(F)F + CC(=O)[O-].CCCC[n+]1ccn(C)c1
101 kPa
Details	electrical conductivity, 313.15 K [S/m]	viscosity, 298.15 K [mPa·s]	viscosity, 313.15 K [mPa·s]	viscosity, 353.15 K [mPa·s]
x1 = 1	0.683	–	28.5	–
x2 = 0	–	50.3	–	9.52

CC1CNCCN1 (stereo unspecified) + CC(=O)[O-].CCCC[n+]1ccn(C)c1 + O
viscosity [mPa·s], 100 kPa
Details	298.15 K	303.15 K	308.15 K	313.15 K	318.15 K	323.15 K	328.15 K	333.15 K
x2 = 0.04327, x1 = 0.02647	3.46	3.23	2.82	2.64	2.39	1.91	1.31	1.16
x2 = 0.05132, x1 = 0.01784	3.58	3.38	3.16	3.02	2.84	2.52	2.47	1.83
x2 = 0.05944, x1 = 0.009089	4.03	3.78	3.72	3.24	3.11	2.89	2.54	2.03

Nc1ncnc2[nH]cnc12 + CC(=O)[O-].CC[n+]1ccn(C)c1
Details	viscosity [mPa·s]
298.15 K, 100 kPa, x1 = 0.2012	960

CCCC[n+]1ccn(C)c1.F[P-](F)(F)(F)(F)F + CC(=O)c1ccccc1
Details	viscosity [mPa·s]
313.15 K, 100 kPa, x2 = 0	97

CCCC[n+]1ccn(C)c1.F[P-](F)(F)(F)(F)F + CC(C)=O
Details	electrical conductivity [S/m]	viscosity [mPa·s]
296.15 K, 101 kPa, x2 = 0	0.15	–
296.15 K, 101 kPa, x2 = 0.9195	3.84	–
298.15 K, 101 kPa, x2 = 0.4972	1.28	14.7
298.15 K, 101 kPa, x2 = 0.7839	2.86	2.05
298.15 K, 101.3 kPa, x2 = 0.4485	–	18.46
298.15 K, 101.3 kPa, x2 = 0.6007	–	6.96
298.15 K, 101.3 kPa, x2 = 0.8058	–	1.648

CCCCCC[N+](CC)(CC)CC.O=S(=O)([N-]S(=O)(=O)C(F)(F)F)C(F)(F)F + CC(C)O
100 kPa
Details	viscosity [mPa·s]
293.15 K, x2 = 0.096	160
298.15 K, x2 = 0.2045	95.8
298.15 K, x2 = 0.3101	68.4
298.15 K, x2 = 0.4987	35.9
303.15 K, x2 = 0.3101	61.4
308.15 K, x2 = 0.4056	35.1
308.15 K, x2 = 0.4987	25.5
308.15 K, x2 = 0.5916	18
308.15 K, x2 = 0.8015	5.65
308.15 K, x2 = 0.9193	2.98
313.15 K, x2 = 0.096	69.9
313.15 K, x2 = 0.5916	16

CCCC[n+]1cccc(C)c1.O=S(=O)([N-]S(=O)(=O)C(F)(F)F)C(F)(F)F + CC(C)O
Details	electrical conductivity [S/m]
298.15 K, 101.3 kPa, x2 = 0.3381	0.642

CC[n+]1ccn(C)c1.O=S(=O)([O-])O + CC(C)[C@H](N)C(=O)O + O
viscosity [mPa·s], 100 kPa
Details	293.15 K	298.15 K	303.15 K	308.15 K	313.15 K
x2 = 0, x1 = 0.0005421	1.046	0.929	0.824	0.75	0.678
x2 = 0, x1 = 0.0009056	1.068	0.949	0.843	0.759	0.684
x2 = 0, x1 = 0.001263	1.073	0.966	0.866	0.78	0.697
x2 = 0.0003674, x1 = 0.0009053	1.09	0.958	0.851	0.767	0.691
x2 = 0.0003913, x1 = 0.0005419	1.068	0.938	0.832	0.758	0.686
x2 = 0.0003924, x1 = 0.001263	1.096	0.975	0.875	0.787	0.705
x2 = 0.0007372, x1 = 0.001262	1.117	0.983	0.882	0.794	0.711
x2 = 0.000749, x1 = 0.0009049	1.112	0.966	0.859	0.774	0.698
x2 = 0.0007642, x1 = 0.0005417	1.09	0.947	0.84	0.765	0.693
x2 = 0.001083, x1 = 0.0005415	1.108	0.954	0.847	0.771	0.699
x2 = 0.001089, x1 = 0.0009046	1.132	0.974	0.866	0.781	0.704
x2 = 0.001118, x1 = 0.001262	1.139	0.992	0.89	0.802	0.718
x2 = 0.001457, x1 = 0.001262	1.159	1	0.897	0.808	0.725
x2 = 0.001475, x1 = 0.0009042	1.155	0.983	0.874	0.788	0.711
x2 = 0.001477, x1 = 0.0005413	1.131	0.963	0.855	0.779	0.706
x2 = 0.001795, x1 = 0.0005411	1.149	0.97	0.861	0.785	0.712
x2 = 0.001812, x1 = 0.0009039	1.175	0.991	0.881	0.795	0.717
x2 = 0.001817, x1 = 0.001261	1.18	1.008	0.905	0.816	0.731
x2 = 0.002249, x1 = 0.0005409	1.176	0.98	0.871	0.794	0.721
x2 = 0.002256, x1 = 0.001261	1.206	1.018	0.915	0.824	0.739
x2 = 0.002283, x1 = 0.0009035	1.203	1.001	0.891	0.804	0.726
